In US20250177396A1, “POLO-LIKE KINASE 4 (PLK4) INHIBITORS, PHARMACEUTICAL COMPOSITIONS, METHODS OF PREPARATION AND USES THEREOF” (Repare Therapeutics Inc., priority 2022, published 2025):

Target: T1, PLK4 (Homo sapiens, UniProt O00444)
T1 construct: expressed in transfected cells; host or cells: HEK293 T cells (ATCC CRL-3216)
T1 sequence (O00444 1-970): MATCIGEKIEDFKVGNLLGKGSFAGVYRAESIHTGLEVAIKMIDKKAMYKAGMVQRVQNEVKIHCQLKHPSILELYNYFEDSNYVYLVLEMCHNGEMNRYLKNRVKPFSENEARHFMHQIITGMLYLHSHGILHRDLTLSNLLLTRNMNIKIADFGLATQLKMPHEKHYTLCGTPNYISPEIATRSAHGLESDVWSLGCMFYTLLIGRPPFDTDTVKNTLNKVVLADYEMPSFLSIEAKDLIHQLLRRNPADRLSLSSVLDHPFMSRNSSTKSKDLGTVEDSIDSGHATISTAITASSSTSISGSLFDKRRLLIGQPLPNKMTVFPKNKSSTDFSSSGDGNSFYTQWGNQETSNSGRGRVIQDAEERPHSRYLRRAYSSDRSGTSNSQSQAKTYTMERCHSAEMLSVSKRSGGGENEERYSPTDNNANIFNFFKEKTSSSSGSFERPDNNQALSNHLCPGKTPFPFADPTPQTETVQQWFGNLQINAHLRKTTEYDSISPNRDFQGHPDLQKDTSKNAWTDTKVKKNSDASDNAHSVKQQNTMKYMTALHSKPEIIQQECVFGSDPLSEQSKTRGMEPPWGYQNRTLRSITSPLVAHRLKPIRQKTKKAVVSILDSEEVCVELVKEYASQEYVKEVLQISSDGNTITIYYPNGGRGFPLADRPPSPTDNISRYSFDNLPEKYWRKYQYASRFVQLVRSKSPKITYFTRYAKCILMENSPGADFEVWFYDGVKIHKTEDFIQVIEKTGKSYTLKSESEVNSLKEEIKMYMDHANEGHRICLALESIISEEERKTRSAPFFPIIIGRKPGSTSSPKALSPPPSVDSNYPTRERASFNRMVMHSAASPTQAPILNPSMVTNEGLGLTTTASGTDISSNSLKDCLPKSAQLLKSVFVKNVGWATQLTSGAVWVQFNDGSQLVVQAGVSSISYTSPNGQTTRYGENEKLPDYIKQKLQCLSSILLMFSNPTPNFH
Experiment: PLK4 NanoBRET target engagement assay
Assay type: binding
Conditions: HEK293 T cells transfected with PLK4 NanoLuc fusion vector; K-5 tracer; 2 hrs incubation
Summary of the method: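 HEK293T cells transiently expressing PLK4-NanoLuc, plated at 17000 cells/well with K-5 tracer and compound, incubated 2 h at 37 °C/5% CO2. After substrate/inhibitor mix, 610/450 nm emission ratio ×1000 gave mBRET; IC50 from 4-parameter fit.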

SMILES | IC50 [nM]
COc1c(Nc2cc(C)[nH]n2)nc(N(C)c2ccc(S(=O)(=O)C3CC3)cc2F)nc1-c1cnn(C)c1 [Compound 7, N^2-(4-(cyclopropylsulfonyl)-2-fluorophenyl)-5-methoxy-N^2-methyl-N^4-(5-methyl-1H-pyrazol-3-yl)-6-(1-methyl-1H-pyrazol-4-yl)pyrimidine-2,4-diamine] | 65
Cc1cc(Nc2nc(N(C)c3c(F)cc(S(C)(=O)=O)cc3F)nc(-c3cnc4ccc(F)cn34)c2C2CC2)n[nH]1 [Compound 310] | 31
Cc1cc(Nc2nc(N(C)c3c(F)cc(S(C)(=O)=O)cc3F)nc(-c3ccn(C(F)F)n3)c2C2CC2)n[nH]1 [Compound 155] | 10
Cc1cc(Nc2nc(N(C)c3c(F)cc(S(C)(=O)=O)cc3F)nc(-c3cnn(C)c3N(C)C)c2C2CC2)n[nH]1 [Compound 320] | 4
Cc1cc(Nc2nc(N(C)c3c(F)cc(S(C)(=O)=O)cc3F)nc(-c3cn(C)c(C(F)F)n3)c2C2CC2)n[nH]1 [Compound 165] | 4
Cc1cc(Nc2nc(N(C)c3c(F)cc(S(C)(=O)=O)cc3F)nc(-c3cc(C(N)=O)n(C)n3)c2C2CC2)n[nH]1 [Compound 321] | 11
Cc1cn(-c2nc(N(C)c3ccc(S(C)(=O)=O)cc3F)nc(Nc3cc(C)[nH]n3)c2C2CC2)cn1 [Compound 107] | 120
Cc1cc(Nc2nc(N(C)c3c(F)cc(S(C)(=O)=O)cc3F)nc(-c3cnn(CCO)c3C)c2C2CC2)n[nH]1 [Compound 201] | 7
COc1c(Nc2cc(C)[nH]n2)nc(N(C)c2ccc(C(C)(C)C#N)cc2)nc1-c1cnn(C)c1 [Compound 61] | 100
CCN(c1nc(Nc2cc(C)[nH]n2)c(OC)c(-c2cnn(C)c2)n1)c1ccc(S(C)(=O)=O)cc1F [Compound 3, N^2-ethyl-N^2-(2-fluoro-4-(methylsulfonyl)phenyl)-5-methoxy-N^4-(5-methyl-1H-pyrazol-3-yl)-6-(1-methyl-1H-pyrazol-4-yl)pyrimidine-2,4-diamine] | 68
Cc1cc(Nc2nc(N(CCO)c3c(F)cc(S(C)(=O)=O)cc3F)nc(-c3cn(C)cn3)c2C2CC2)n[nH]1 [Compound 238] | 34
CN(c1nc(Nc2cc(C3CC3)[nH]n2)c(C2CC2)c(-c2cn(C)cn2)n1)c1ccc(S(C)(=O)=O)cc1F [Compound 315] | 23
Cc1cc(Nc2nc(N(C)c3c(F)cc(-c4ccc(=O)n(C)c4)cc3F)nc(-c3cn(C)cn3)c2C2CC2)n[nH]1 [Compound 348] | 46
COc1c(-c2cnn(C)c2)cc(N(C)c2ccc(S(C)(=O)=O)cc2F)nc1Nc1cc(C)[nH]n1 [Compound 19, N^6-(2-fluoro-4-(methylsulfonyl)phenyl)-3-methoxy-N^6-methyl-N^2-(5-methyl-1H-pyrazol-3-yl)-4-(1-methyl-1H-pyrazol-4-yl)pyridine-2,6-diamine] | 56
CN(c1nc(Nc2cc(C3CC3)[nH]n2)c(C2CC2)c(-c2ccn(CCO)n2)n1)c1c(F)cc(S(C)(=O)=O)cc1F [Compound 265] | 5
Cc1cc(Nc2nc(N(C)c3cc(F)c(S(C)(=O)=O)cc3F)nc(-c3ccn(C(F)F)n3)c2C2CC2)n[nH]1 [Compound 194] | 63
CC(=O)N1CCn2cc(-c3nc(N(C)c4c(F)cc(S(C)(=O)=O)cc4F)nc(Nc4cc(C)[nH]n4)c3C3CC3)nc2C1 [Compound 212] | 53
Cc1cc(Nc2nc(N(C)c3c(F)cc(S(C)(=O)=O)cc3F)nc(-c3cc(CO)n(C)n3)c2C2CC2)n[nH]1 [Compound 178] | 11
COCCn1cnc(-c2nc(N(C)c3c(F)cc(S(C)(=O)=O)cc3F)nc(Nc3cc(C)[nH]n3)c2C2CC2)c1 [Compound 139] | 4
Cc1cc(Nc2nc(N(C)c3c(F)cc(S(C)(=O)=O)cc3F)nc(Nc3ccn(C)n3)c2C2CC2)n[nH]1 [Compound 325] | 52
Cc1cc(Nc2nc(N(C)c3c(F)cc(S(C)(=O)=O)cc3F)nc(-c3ncn(C)n3)c2C2CC2)n[nH]1 [Compound 215] | 69
Cc1cc(Nc2nc(N(C)c3ccc(S(C)(=O)=O)cc3F)nc(N3CCOc4ccncc43)c2C2CC2)n[nH]1 [Compound 110, 5-cyclopropyl-6-(2,3-dihydro-4H-pyrido[4,3-b][1,4]oxazin-4-yl)-N^2-(2-fluoro-4-(methylsulfonyl)phenyl)-N^2-methyl-N^4-(5-methyl-1H-pyrazol-3-yl)pyrimidine-2,4-diamine] | 160
Cc1cc(Nc2nc(Nc3c(F)cc(S(C)(=O)=O)cc3F)nc(-c3cn(C)cn3)c2C2CC2)n[nH]1 [Compound 189] | 150

Continued, values first:

IC50 [nM] | SMILES
9200 | CNC(=O)CN(c1nc(Nc2cc(C)[nH]n2)c(OC)c(-c2cnn(C)c2)n1)c1ccc(S(C)(=O)=O)cc1F [Compound 85]
59 | COc1c(Nc2cc(C)[nH]n2)nc(N(C)c2ccc(Cn3ccnc3)cc2F)nc1-c1cnn(C)c1 [Compound 64]
1100 | Cc1cc(Nc2nc(N(C)c3c(F)cc(S(C)(=O)=O)cc3F)nc(-n3ccccc3=O)c2C2CC2)n[nH]1 [Compound 235]
65 | Cc1cc(Nc2nc(N(C)c3ccc(S(=O)(=O)C(C)(C)C)cc3)nc(-c3cnn(C)c3)c2C2CC2)n[nH]1 [Compound 82]
720 | COc1c(Nc2cc(C)[nH]n2)nc(N(Cc2ccc(F)cc2)c2ccc(S(C)(=O)=O)cc2F)nc1-c1cnn(C)c1 [Compound 4, N^2-(2-fluoro-4-(methylsulfonyl)phenyl)-N^2-(4-fluorobenzyl)-5-methoxy-N^4-(5-methyl-1H-pyrazol-3-yl)-6-(1-methyl-1H-pyrazol-4-yl)pyrimidine-2,4-diamine]
38 | COCCn1ncc(-c2nc(N(C)c3ccc(S(C)(=O)=O)cc3F)nc(Nc3cc(C)[nH]n3)c2C2CC2)c1C [Compound 220]
9 | Cc1cc(Nc2nc(N(C)c3c(F)cc(S(C)(=O)=O)cc3F)nc(-c3cnn(C)c3C(=O)N3CCC3)c2C2CC2)n[nH]1 [Compound 263]
50 | Cc1cc(Nc2nc(N(C)c3ccc(S(C)(=O)=O)cc3Cl)nc(-c3ccn(C)n3)c2C2CC2)n[nH]1 [Compound 48]
670 | COc1c(Nc2cc(C)[nH]n2)nc(Nc2ccc(S(C)(=O)=O)cc2C)c(C)c1-c1cnn(C)c1 [Compound 96]
9 | Cc1cc(Nc2nc(N(C)c3c(F)cc(S(C)(=O)=O)cc3F)nc(-c3cnn4cccnc34)c2C2CC2)n[nH]1 [Compound 326]
140 | COc1c(Nc2cc(C)[nH]n2)nc(N(c2ccc(S(C)(=O)=O)cc2F)C(C)C)nc1-c1cnn(C)c1 [Compound 84]
4 | Cc1cc(Nc2nc(N(C)c3c(F)cc(C4(C#N)CC4)cc3F)nc(-c3cn(C)cn3)c2C2CC2)n[nH]1 [Compound 362]
6 | CN(c1nc(Nc2cc(C3CC3)[nH]n2)c(C2CC2)c(-c2cn(C)c(C#N)n2)n1)c1c(F)cc(S(C)(=O)=O)cc1F [Compound 287, 4-(5-cyclopropyl-6-((5-cyclopropyl-1H-pyrazol-3-yl)amino)-2-((2,6-difluoro-4-(methylsulfonyl)phenyl)(methyl)amino)pyrimidin-4-yl)-1-methyl-1H-imidazole-2-carbonitrile]
4 | Cc1cc(Nc2nc(N(C)c3c(F)cc(S(C)(=O)=O)cc3F)nc(-c3cc(CC#N)n(C)n3)c2C2CC2)n[nH]1 [Compound 340]
4 | Cc1cc(Nc2nc(N(C)c3c(F)cc(S(C)(=O)=O)cc3F)nc(-c3cnn4c3CCC4)c2C2CC2)n[nH]1 [Compound 175]
